Test results: ChEMBL document CHEMBL1201862, “PubChem BioAssay data set” (2004)
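Values below derive from 48-hour exposures of cells grown in 96-well plates, with endpoints linearly interpolated between the two concentrations bracketing the appropriate inhibition level. Abbreviation: GI50, concentration required for 50% inhibition of growth.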 Activity calls are given as the source filed them. Rule as the data show it: active = GI50 up to about 1.1 µM and inactive = higher.

How the values were obtained:
Assay in all cases: NCI tumour cell line growth inhibition, 48 h
UACC-257 = test system: UACC-257
SK-MEL-28 = test system: SK-MEL-28
COLO 205 = test system: COLO 205
SF-268 = test system: SF-268
UACC-62 = test system: UACC-62
HCT-15 = test system: HCT-15
SNB-75 = test system: SNB-75
SK-MEL-2 = test system: SK-MEL-2
LOX IMVI = test system: LOX IMVI
IGROV-1 = test system: IGROV-1
DLD-1 = test system: DLD-1
DMS-114 = test system: DMS-114
CAKI-1 = test system: CAKI-1
NCI-H226 = test system: NCI-H226
RXF 393 = test system: RXF 393
HOP-92 = test system: HOP-92
UO-31 = test system: UO-31
NCI/ADR-RES = test system: NCI/ADR-RES
U-251 = test system: U-251
HOP-18 = test system: HOP-18
HT-29 = test system: HT-29
NCI-H23 = test system: NCI-H23
A498 = test system: A498
SNB-19 = test system: SNB-19
OVCAR-3 = test system: OVCAR-3
Malme-3M = test system: Malme-3M
XF498 = test system: XF498
KM12 = test system: KM12
A549 = test system: A549
OVCAR-8 = test system: OVCAR-8
DMS-273 = test system: DMS-273
KM-20L2 = test system: KM-20L2
K562 = test system: K562
MCF7 = test system: MCF7
OVCAR-5 = test system: OVCAR-5
SW-620 = test system: SW-620
SNB-78 = test system: SNB-78
MOLT-4 = test system: MOLT-4
HCT-116 = test system: HCT-116
SF-539 = test system: SF-539
OVCAR-4 = test system: OVCAR-4
HL-60 = test system: HL-60
SN12C = test system: SN12C
HCC 2998 = test system: HCC 2998
SK-OV-3 = test system: SK-OV-3
NCI-H522 = test system: NCI-H522
HOP-62 = test system: HOP-62
NCI-H460 = test system: NCI-H460
SF-295 = test system: SF-295
SK-MEL-5 = test system: SK-MEL-5
CCRF-CEM = test system: CCRF-CEM
RPMI-8226 = test system: RPMI-8226
EKVX = test system: EKVX

Measured: GI50

C=CCCCCn1c2ccccc2c2c(C)c3cnccc3c(C)c21
6.27 µM: HCT-15
inactive: UACC-257 4.5 µM | SK-MEL-28 9.82 µM | COLO 205 3.96 µM | SF-268 11.3 µM | UACC-62 11.2 µM | SNB-75 3.88 µM | SK-MEL-2 13.4 µM | LOX IMVI 7.55 µM | IGROV-1 11.7 µM | DLD-1 7.11 µM | DMS-114 3.94 µM | CAKI-1 8.69 µM | NCI-H226 10.9 µM | RXF 393 6.25 µM | HOP-92 4.06 µM | UO-31 5.75 µM | NCI/ADR-RES 5.07 µM | U-251 12.5 µM | HOP-18 16.1 µM | HT-29 7 µM | NCI-H23 4.63 µM | A498 5.86 µM | SNB-19 15.3 µM | OVCAR-3 4.99 µM | Malme-3M 9.02 µM | XF498 1.95 µM | KM12 8.47 µM | A549 8.99 µM | OVCAR-8 3.93 µM | DMS-273 5.14 µM | KM-20L2 6.38 µM | K562 3.32 µM | MCF7 7.73 µM | OVCAR-5 16.9 µM | SW-620 4.54 µM | SNB-78 12.1 µM | MOLT-4 2.83 µM | HCT-116 4.63 µM | SF-539 12.5 µM | OVCAR-4 6.5 µM | HL-60 2.07 µM | SN12C 8.67 µM | HCC 2998 10.1 µM | SK-OV-3 16.5 µM | NCI-H522 3.97 µM | HOP-62 16.2 µM | NCI-H460 6.64 µM | SF-295 8.71 µM | SK-MEL-5 5.08 µM | CCRF-CEM 4.04 µM | RPMI-8226 2.81 µM | EKVX 12.9 µM
